Assay [1] deals with T. brucei brucei (strain BF427). The assay can be described thus: In vitro parasite growth arrest assay. Format: cell-based, Trypanosoma brucei brucei. Conditions: for EC50: Trypanosoma brucei.
Assay [2] relates to T. brucei rhodesiense STIB 900 strain. The assay can be described thus: Anti-parasite efficacy studies in mice. Conditions: for Cured / Day of euthanasia: mice, oral, 5 days.
Where [3] appears, read: 5 mg/kg, 2 doses per day, Exp 1 and Exp 2.
[4] abbreviates: 20 mg/kg, 1 dose per day, Exp 2.
[5] abbreviates: 20 mg/kg, 2 doses per day, Exp 1.
Setting [6] is: 50 mg/kg, 1 dose per day, Exp 1.

Several values for one entry are separate records, joined by “and”; a condition that tells them apart may be missing. Equal entries are not always repeated. Where two headings read alike, the source gives them in different places.

For `Nc1ccc(Cl)c(-c2nc3ncccc3o2)c1` [Compound 36], in assay [1] (tested up to 20 μM), the “inhibition of T. brucei growth in vitro” value is recorded as “no inhibition”.
For `O=C(Nc1ccc(F)c(-c2nc3cc(-c4ccccc4)cnc3[nH]2)c1)N1CCCC1` [Compound 64], in assay [2] (T. brucei infected mice), the “lowest oral dose at which infected mice were cured (dosed orally down to)” value stood at 2.5 mg/kg. For the same molecule, the Cured in assay [2] (1 mg/kg, 2 doses per day, Exp 2) is 0 of 5 and 0/5; in assay [2] (2.5 mg/kg, 2 doses per day, Exp 2), 2 of 5 and 2/5; in assay [2] (5 mg/kg, 1 dose per day, Exp 2), 2 of 5 and 2/5; in assay [2] (setting [3]), “all mice were cured and 5/5”; in assay [2] (setting [4]), “Cures in all mice and 5/5”; in assay [2] (setting [5]), “Cures in all mice and 5/5”. Moreover, the Cured result in assay [2] (setting [6]) was “Cures in all mice and 5/5”; in assay [2] (50 mg/kg, 2 doses per day, Exp 1), “Cures in all mice and 5/5”. In addition, the Day of euthanasia in assay [2] (setting [3]) worked out at 60; in assay [2] (setting [4]) it was 60; in assay [2] (setting [5]), 60; in assay [2] (setting [6]) it was 60; in assay [2] (50 mg/kg, 2 doses per day, Exp 1, day 60 = cured) it was 60. Further, in assay [1], the “extent of growth inhibition of T. brucei in vitro” value is listed as “complete growth inhibition”.
On to `N=C(N)c1ccc(OCCCCCOc2ccc(C(=N)N)cc2)cc1` [Pentamidine, reference compound], for which the EC50 in assay [1] (read-out: EC50, concentration of compound required to inhibit growth by 50%) turned out to be 1.7 nM; in assay [1] (read-out: EC50 against T. brucei in vitro), 1.2 nM.
